Patent US6372737B1 (priority 1996, dated 2002)

How the values were obtained:
Type in all cases: in vivo
Sphaerotheca fuliginea = experiment: Sphaerotheca test (cucumber)/protective; settings: protective, 10 days after inoculation
Experimental: To test for protective activity, young plants are sprayed with the commercial active compound preparation at the stated application rate. After the spray coating has dried on, the plants are inoculated with an aqueous spore suspension of Sphaerotheca fuliginea. The plants then remain in a greenhouse at about 23° C. and about 70% relative atmospheric humidity.
Evaluation is carried out 10 days after the inoculation. 0% means an efficacy corresponding to that of the control, and an efficacy of 100% means that no infection is observed.

Fusarium nivale = Fusarium nivale test (triticale)/seed treatment; settings: dry seed dressing, about 3 weeks after sowing
Experimental: About 3 weeks after sowing, the plants are evaluated for symptoms of snow mould.

Phytophthora infestans = experiment: whole plant or invertebrate; settings: for Emax at 1 g/ha / Emax at 5 g/ha: Phytophthora infestans, in Solanum lycopersicum, 72 h, read-out: % efficacy
Botrytis cinerea = experiment: Botrytis test (beans)/protective; settings: 48 h, application rate 250 g/ha, protective, two days after inoculation, read-out: % efficacy
Experimental: To test for protective activity, young plants are sprayed with the commercial active compound preparation at the stated application rate. After the spray coating has dried on, 2 small pieces of agar covered with Botrytis cinerea are placed on each leaf. The inoculated plants are placed in a darkened chamber at about 20° C. and 100% relative atmospheric humidity.
Two days after the inoculation, the size of the infected spots on the leaves is evaluated. 0% means an efficacy corresponding to that of the control, and an efficacy of 100% means that no infection is observed.

[1] = tested on: Erysiphe graminis f.sp. hordei; experiment: Erysiphe test (barley)/curative; settings: curative, 7 days after inoculation
Experimental: (§1) Solvent: 25 parts by weight of N,N-dimethylacetamide
(§2) Emulsifier: 0.6 part by weight of alkylaryl polyglycol ether
(§3) To produce a suitable preparation of active compound, 1 part by weight of active compound or active compound combination is mixed with the stated amounts of solvent and emulsifier, and the concentrate is diluted with water to the desired concentration.
To test for curative activity, young plants are dusted with spores of Erysiphe graminis f.sp. hordei. 48 hours after the inoculation, the plants are sprayed with the preparation of active compound at the stated application rate.
(§4) The plants are placed in a greenhouse at a temperature of about 20° C. and a relative atmospheric humidity of about 80%, in order to promote the development of mildew pustules.
(§5) Evaluation is carried out 7 days after the inoculation. 0% means an efficacy which corresponds to that of the control, whereas an efficacy of 100% means that no infection is observed.

Pyrenophora teres = Pyrenophora teres test (barley)/curative; settings: application rate 6.25 g/ha, curative, 7 days after inoculation
Experimental: as §1, §2, §3
(§6) To test for curative activity, young plants are sprayed with a conidia suspension of Pyrenophora teres. The plants remain in an incubation cabin at 20° C. and 100% relative atmospheric humidity for 48 hours. The plants are subsequently sprayed with the preparation of active compound at the stated application rate.
The plants are placed in a greenhouse at a temperature of about 20° C. and a relative atmospheric humidity of about 80%.
as §5

Leptosphaeria nodorum [2] = experiment: Leptosphaeria nodorum test (wheat)/protective; settings: application rate 6.25 g/ha, protective, 10 days after inoculation; for pest or weed control at 6.25 g/ha: Parastagonospora nodorum, 240 h, read-out: Efficacy in %
Experimental: as §1, §2, §3
(§7) To test for protective activity, young plants are sprayed with the preparation of active compound at the stated application rate. After the spray coating has dried on, the plants are sprayed with a spore suspension of Leptosphaeria nodorum. The plants remain in an incubation cabin at 20EC and 100% relative atmospheric humidity for 48 hours.
The plants are placed in a greenhouse at a temperature of about 15° C. and a relative atmospheric humidity of 80%.
(§8) Evaluation is carried out 10 days after the inoculation. 0% means an efficacy which corresponds to that of the control, whereas an efficacy of 100% means that no infection is observed.

Leptosphaeria nodorum [3] = experiment: Leptosphaeria nodorum test (wheat)/curative; settings: curative, 10 days after inoculation
Experimental: as §1, §2, §3
as §6, with “Leptosphaeria nodorum.” for “Pyrenophora teres.”, “hours and” for “hours. The plants”, “then” for “subsequently”
The plants are placed in a greenhouse at a temperature of about 15° C. and a relative atmospheric humidity of about 80%.
as §8

Rhizoctonia solani = Rhizoctonia solani test (cotton)/seed treatment; settings: application rate 75 mg/kg of seed, dry seed dressing, after 8 days
Experimental: The active compounds are applied as dry seed dressing. This is prepared by extending the respective active compound with ground mineral to give a finely pulverulent mixture which ensures uniform distribution on the seed surface.
To dress the seed, the infected seed together with the seed dressing is shaken for 3 minutes in a sealed glass flask.
2×50 corns of seed are sown at a depth of 2 cm into standard soil which is infected with Rhizoctonia solani, and the seeds are cultivated in a greenhouse at a temperature of about 22° C. in seed trays which receive a light regimen of 15 hours per day.
Evaluation is carried out after 8 days. 0% means an efficacy which corresponds to that of the untreated control, while an efficacy of 100% means that no disease is observed.

Puccinia recondita = experiment: Puccinia test (wheat)/protective; settings: application rate 6.25 g/ha, protective, 10 days after inoculation; for pest or weed control at 6.25 g/ha: Puccinia recondita, 240 h, read-out: Efficacy in %
Experimental: as §1, §2, §3
as §7, with “conidia” for “spore”, “Puccinia recondita.” for “Leptosphaeria nodorum.”, “20° C.” for “20EC”
The plants are then placed in a greenhouse at a temperature of about 20° C. and a relative atmospheric humidity of 80%, in order to promote the development of rust pustules.
as §8

[4] = tested on: Erysiphe graminis fsp. tritici; experiment: Erysiphe test (wheat)/protective; settings: protective, 7 days after inoculation
Experimental: as §1, §2, §3
To test for protective activity, young plants are sprayed with the preparation of active compound at the stated application rate.
After the spray coating has dried on, the plants are dusted with spores of Erysiphe graminis fsp. tritici.
as §4, §5

[5] = tested on: Erysiphe graminis f.sp. tritici; experiment: Erysiphe test (wheat)/curative; settings: application rate 6.25 g/ha, curative, 7 days after inoculation
Experimental: as §1, §2, §3
To test for curative activity, young plants are dusted with spores of Erysiphe graminis f.sp. tritici. 48 hours after the inoculation, the plants are sprayed with the preparation of active compound at the stated application rate.
as §4, §5

[6] = application rate 25 mg/kg of seed

In the case of `CO/C=C(/C(=O)OC)c1ccccc1Oc1cc(Oc2ccccc2C#N)ncn1` [(U), azoxystrobin], the Emax at 2.5 g/ha (Sphaerotheca fuliginea; Podosphaera fuliginea, 240 h, application rate 2.5 g/ha, read-out: % efficacy) is reported as 57%.
Compound `O=C(Nc1ccccc1)N(Cc1ccc(Cl)cc1)C1CCCC1` [(ρ), pencycuron] has an Efficacy in % (Fusarium nivale; [6]) of 29%.
Compound `Cc1cc(C)nc(Nc2ccccc2)n1` [(Q), pyrimethanil] has an Emax at 12.5 g/ha (Sphaerotheca fuliginea; Podosphaera fuliginea, 240 h, application rate 12.5 g/ha, read-out: % efficacy) of 10%.
For `COc1ccc(/C(=C/C(=O)N2CCOCC2)c2ccc(Cl)cc2)cc1OC` [(L), dimetomorph], the Emax at 1 g/ha (Phytophthora infestans) was 0%.
With mancozeb [(II)] the “% efficacy” value (Phytophthora infestans; application rate 50 g/ha, tomato, protective, 3 days after inoculation) was 54%.
`CCO[PH](=O)O` [(O), fosetyl-Al] was tested, and the Emax at 250 g/ha (Botrytis cinerea) was 4%.
`N#Cc1c[nH]cc1-c1cccc(Cl)c1Cl` [(Fenpiclonil) V, fenpiclonil] gave an Efficacy in % (Fusarium nivale; application rate 75 mg/kg of seed) of 67%.
Compound `CC(C)(C)C(O)C(Oc1ccc(Cl)cc1)n1cncn1` (centres unmarked) [(F), triadimenol] has an Efficacy in % ([1]; application rate 6.25 g/ha) of 67%, an Efficacy in % (Pyrenophora teres) of 0% and an Emax at 5 g/ha (Phytophthora infestans) of 0%. For the same compound, the pest or weed control at 6.25 g/ha (Leptosphaeria nodorum [2]) was 0%, the Efficacy in % (Leptosphaeria nodorum [3]; application rate 6.25 g/ha) was 25% and the Efficacy in % (Rhizoctonia solani) was 48%. The pest or weed control at 6.25 g/ha (Puccinia recondita) was 13% and the Efficacy in % (Fusarium nivale; [6]) was 52%.
With `CC(C)(C)C(O)(CCc1ccc(Cl)cc1)Cn1cncn1` (centres unmarked) [(D), tebuconazole] the Efficacy in % ([4]; application rate 6.25 g/ha) was 0%, the Efficacy in % ([1]; application rate 6.25 g/ha) was 33% and the Efficacy in % ([1]; application rate 25 g/ha) was 83%. It also gave an Emax at 5 g/ha (Phytophthora infestans) of 26%, a pest or weed control at 6.25 g/ha (Leptosphaeria nodorum [2]) of 25% and a pest or weed control at 6.25 g/ha (Puccinia recondita) of 38%. It also gave an Efficacy in % (Fusarium nivale; [6]) of 20%.
Compound `CO/N=C(\C(=O)OC)c1ccccc1COc1ccccc1C` [(T), kresoxim-methyl] has an Efficacy in % ([4]; application rate 25 g/ha) of 86%, an Efficacy in % ([1]; application rate 12.5 g/ha) of 67% and an Emax at 1 g/ha (Phytophthora infestans) of 14%. For the same compound, the Efficacy in % [5] was 0%, the pest or weed control at 6.25 g/ha (Leptosphaeria nodorum [2]) was 0% and the Efficacy in % (Leptosphaeria nodorum [3]; application rate 12.5 g/ha) was 50%. It also gave a pest or weed control at 6.25 g/ha (Puccinia recondita) of 25%.
With `CCCN(CC)CC1COC2(CCC(C(C)(C)C)CC2)O1` (centres unmarked) [(δ), 8-t-butyl-2-(N-ethyl-N-n-propyl-amino)-methyl-1,4-dioxaspiro[5.4]-decane] the “% efficacy” value (Sphaerotheca fuliginea; application rate 2.5 g/ha) was 10%, the Efficacy in % ([4]; application rate 6.25 g/ha) was 14% and the Efficacy in % ([1]; application rate 6.25 g/ha) was 0%. It also gave an Efficacy in % (Leptosphaeria nodorum [2]) of 25%, an Efficacy in % (Leptosphaeria nodorum [3]; application rate 12.5 g/ha) of 25% and an Efficacy in % (Puccinia recondita) of 13%.
Compound `O=[N+]([O-])c1cc(C(F)(F)F)c(Cl)c([N+](=O)[O-])c1Nc1ncc(C(F)(F)F)cc1Cl` [(π), fluazinam] has an Emax at 5 g/ha (Phytophthora infestans) of 11%.
Work on `COCC(=O)N(c1c(C)cccc1C)C(C)C(=O)OC` (centres unmarked) [(N), metalaxyl] yielded an Emax at 5 g/ha (Phytophthora infestans) of 1%.
`CN(C)S(=O)(=O)N(SC(F)(Cl)Cl)c1ccccc1` [(B1), dichlorofluanide] was tested, and the “% efficacy” value (Sphaerotheca fuliginea; application rate 25 g/ha) was 20%.
